# From patent EP2316926B1, “Enantioselective production of alpha-hydroxy carbonyl compounds” (priority 2009, dated 2011)
# Legend:
# Assay type in all cases: biochemical
# [1] = molecular target: T1, Gox1615 (Gluconobacter oxydans, UniProt Q5FQJ0); assay: NADPH-dependent α-ketocarbonyl reductase activity assay (rate of decrease of NADPH at 340 nm)
# T1 sequence (Q5FQJ0 1-332): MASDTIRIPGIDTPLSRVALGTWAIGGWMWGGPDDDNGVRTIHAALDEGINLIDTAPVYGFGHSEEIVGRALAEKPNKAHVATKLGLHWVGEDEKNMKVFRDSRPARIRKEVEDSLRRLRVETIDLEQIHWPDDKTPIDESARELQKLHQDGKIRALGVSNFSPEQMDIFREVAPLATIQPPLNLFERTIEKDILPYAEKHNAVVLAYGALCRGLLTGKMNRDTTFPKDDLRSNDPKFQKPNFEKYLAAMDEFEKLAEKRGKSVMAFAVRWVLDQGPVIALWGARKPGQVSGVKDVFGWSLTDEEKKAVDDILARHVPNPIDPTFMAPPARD
# Description: Measurement of enzyme activity: NADPH-dependent α-ketocarbonyl reductases were assayed by a routine method used for NAD(P)-linked enzymes by recording the rate of decrease of NADPH at 340 nm (ε = 6.22 mM^-1 x cm^-1)) with substrates at 30 °C. The reaction mixture (1 ml) for reduction of α-ketocarbonyl substrates contained 10 mM substrate, 40 mM potassium phosphate buffer pH 7.0, 0.025 mM NAD(P)H and the enzyme. Reactions were induced by addition of enzyme or substrate. One unit was defined as the amount of enzyme activity catalyzing the conversion of 1 µmol of pyridine nucleotide per min at 30 °C. NMR Analysis of Biotransformation Products: Biotransformations were extracted with equal volumes of CDCl3. and ^13C NMR spectra were recorded on a Bruker Avance 300 DPX spectrometer operating at 300 MHz for ^1H NMR and at 75 MHz for ^13C NMR, respectively. Spectra were processed using Bruker TonSpin 1.3 for Windows software and calibrated to the residual solvent peak of CDCl3 (δH = 7.26 / δC = 77.0).
# NADPH-dependent α-ketocarbonyl reductases were assayed by a routine method used for NAD(P)-linked enzymes by recording the rate of decrease of NADPH at 340 nm (ε = 6.22 mM^-1.cm^-1) with substrates at 30 °C. The reaction mixture (1 ml) for reduction of α-ketocarbonyl substrates contained 10 mM substrate, 40 mM potassium phosphate buffer pH 7.0, 0.025 mM NADPH, and the enzyme. Reactions were induced by addition of enzyme or substrate. One unit of activity was defined as the amount of enzyme activity catalyzing the conversion of 1 µmol of pyridine nucleotide per min at 30 °C.
# Purified NAD(P)-dependent oxidoreductases were assayed at 30 °C by a routine method used for NAD(P)-linked enzymes by recording the rate of decrease of NAD(P)H at 340 nm (ε = 6.22 mM^-1˙cm^-1) with substrates capable of reduction reactions. The standard reaction mixture (1 ml) for the reduction reactions of substrates contained 10 mM substrate, 40 mM potassium phosphate buffer (K-phosphate buffer) pH 7.0, 0.05 mM NAD(P)H, and the enzyme unless otherwise noted. Reactions were induced by addition of enzyme or substrate. One unit of activity was defined as the amount of enzyme activity catalyzing the conversion of 1 µmol of pyridine nucleotide per min at 30 °C. Measurement of the protein content was performed by the method of Bradford (Bradford M.M., Anal. Biochem. 72:248-254 (1976)). Table 3: Enzymatic activities with α-diketones, α-ketoaldehydes and α-ketoesters
# [2] = molecular target: T2, Gox0644 (Gluconobacter oxydans, UniProt Q5FT75); assay: as above; conditions: Table 3; 10 mM substrate, 40 mM K-phosphate buffer pH 7.0, 0.05 mM NAD(P)H, 30 °C; U/mg = µmol x min^-1 x mg protein^-1
# Description: Reactions were induced by addition of enzyme or substrate. One unit was defined as the amount of enzyme activity catalyzing the conversion of 1 µmol of pyridine nucleotide per min at 30 °C. NMR Analysis of Biotransformation Products: Biotransformations were extracted with equal volumes of CDCl3. and ^13C NMR spectra were recorded on a Bruker Avance 300 DPX spectrometer operating at 300 MHz for ^1H NMR and at 75 MHz for ^13C NMR, respectively.
# Reactions were induced by addition of enzyme or substrate. One unit of activity was defined as the amount of enzyme activity catalyzing the conversion of 1 µmol of pyridine nucleotide per min at 30 °C.
# The standard reaction mixture (1 ml) for the reduction reactions of substrates contained 10 mM substrate, 40 mM potassium phosphate buffer (K-phosphate buffer) pH 7.0, 0.05 mM NAD(P)H, and the enzyme unless otherwise noted. Reactions were induced by addition of enzyme or substrate. One unit of activity was defined as the amount of enzyme activity catalyzing the conversion of 1 µmol of pyridine nucleotide per min at 30 °C. […] Table 3: Enzymatic activities with α-diketones, α-ketoaldehydes and α-ketoesters
# [3] = molecular target: T1, Gox1615; assay: Kinetic constants from purified enzyme by Lineweaver-Burk plots
# Description: (§1) Determination of pH and temperature optima and enzyme kinetics: The optimum pH for enzyme activities was determined by a modified method of Salusjärvi, T. et al., Appl. Microbiol. Biotechnol. 65:306-314 (2004) using the following buffer system (50 mM final concentration each): sodium acetate pH 4.5 - 6.5, potassium phosphate pH 6.5 - 8.0, Tris-HCl pH 8.0 - 10. Temperature optima for the biocatalysts were determined under standard reaction conditions at temperatures ranging from 20 - 80 °C. The Michaelis constant (Km) for the proteins was determined from purified enzyme by Lineweaver-Burk plots. Assays were performed at optimum pH for each enzyme and at 30 °C using the best substrate and a targeted substrate. The Km for each substrate was calculated using concentrations of 0.0025 to 10 mM, and the Km NAD(P)H and NAD(P) was calculated using concentrations of 0.01 to 0.5 mM
# (§2) 2.9 Kinetic parameters of the keto carbonyl reductases: Kinetic constants were determined from purified enzyme by Lineweaver-Burk plots. The Km and Vmax values for the substrates were calculated using concentrations of 0.025 to 10 mM. The optimal pH values and temperatures for enzyme activities are also shown in Tab. 8. Table 8: Summary of kinetic parameters
# [4] = molecular target: T2, Gox0644; assay: as above
# Description: as §1, §2
smiles,measurement,setting,value
"CCC(=O)C(C)=O [2,3-pentanedione]",Gox1615 U/mg*,"[1]; Table 3, 10 mM substrate, 40 mM K-phosphate buffer pH 7.0, 0.05 mM NAD(P)H, 30 °C, U/mg = µmol x min^-1 x mg protein^-1",7.0 U/mg
same,Specific Activity (U/mg)*,"[1]; Table 5, cofactor NADPH, U/mg = µmol/mg·min",7.0 U/mg
same,Gox0644 U/mg*,[2],69.6 U/mg
same,Vmax,[3],7.0 U/mg protein
same,Vmax,[4],70 U/mg protein
